Structures are written as SMILES. Active and inactive are the calls of the source.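 How the source made its calls: active means fitted curve hits 40% activity increase at a dose no higher than the top valid tested dose; inconclusive means flat curve at 30 to 70% activity, or poor fit; inactive means the rest.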

System in the first experiment: not listed separately
The experiment is described as follows: miR-122 suppression via Renilla sensor signal rise – cell-based, Huh7-psiCHECK-miR122, luminescence, dry powder, dose response (AID 687040). Particulars: Huh7 psiCHECK-miR122 Renilla luciferase reporter, 48 h; at 35 µM (top of the series). In general terms: In a reporter assay the amount or activity of a reporter protein is the signal.
In the case of `O=S(=O)(Nc1cccc2[nH]ncc12)c1ccc(F)c2ncccc12`, the activity increase (miR-122 inhibition) was 6.99% (inactive).

For the next experiment, the system named is Huh7 psiCHECK-miR122 Renilla luciferase reporter, 48 h. The experiment is described as above.
Conditions: not given
For the compound `Cc1cccc(NS(=O)(=O)c2cc3c(cc2C)NC(=O)CO3)c1`, the AC40 is 2650 nM.

As for `O=S(=O)(c1ccc2c(c1)CCCN2)N1CCC[C@@H]2CCCC[C@H]21`, the AC40 was 6940 nM.

In the case of `Cc1cc(C)c(C)c(S(=O)(=O)NC2CCCCC2)c1C`, the AC40 is 507 nM.

`O=C(Nc1ccc(N2CCOCC2)c(S(=O)(=O)Nc2cc(Cl)ccc2Cl)c1)c1cccnc1`: the AC40 was 761 nM.

Regarding `Cc1ccc(C(=O)C2Oc3ccccc3C3CC(c4ccc(C)cc4)=NN23)cc1` (centres undefined), the AC40 was 831 nM.

In the case of `CCN(CC)C(=O)CN(c1cc2c(cc1OC)oc1ccccc12)S(=O)(=O)c1ccccc1`, the AC40 is 2290 nM.

Consider `Cc1ccc(C(C)C)cc1S(=O)(=O)Nc1cccnc1`, for which the AC40 is 1790 nM.

`S=C(Nc1ccc(Cl)cc1Cl)NC1CCCCC1`: the AC40 is 4180 nM.

`CCCCNS(=O)(=O)c1ccc2nc(-c3cccnc3)cc(C(=O)NC(C)CC)c2c1` (centres undefined): the AC40 was 274 nM.

On to `Cc1cc(C(C)(C)C)cc(S(=O)(=O)NCCO)c1C`, for which the AC40 was 1260 nM.

For `Cc1cc(S(=O)(=O)NC2CCCCC2)c(C)s1`, the AC40 was 2040 nM.

As for `COc1ccc(C)cc1NS(=O)(=O)c1ccc2c(c1)N(C)CCO2`, the AC40 was 2650 nM.

Consider `CCOc1ccccc1N1CCN(C(=O)c2cccc(-c3ccc(O)cc3)c2)CC1`, for which the AC40 was less than 260 nM.

For the compound `O=C(Nc1ccc2ccccc2c1)c1ccc(Cl)cc1Cl`, the AC40 is > 35000 nM (inactive).

On to `Cc1ccc(C)c(S(=O)(=O)Nc2ccc(-n3cnnn3)cc2)c1`, for which the AC40 is 271 nM.

Turning to `COc1ccc(S(=O)(=O)Nc2ccc(OC(F)F)cc2)c2cccnc12`, the AC40 is 1430 nM.

Regarding `COc1ccc(S(=O)(=O)NCCN2CCOCC2)c2ccccc12`, the AC40 was 1600 nM.

For `O=C(CN1CCOCC1)Nc1ccc(Br)cc1C(=O)c1ccccc1`, the AC40 is 1430 nM.

On to `Cc1ccc(C)c(S(=O)(=O)Nc2ccc3cn[nH]c3c2)c1`, for which the AC40 was 1540 nM.

Consider `Nc1c(S(=O)(=O)c2cccs2)c2nc3ccccc3nc2n1Cc1ccccc1`, for which the AC40 was 1250 nM.

With `CC1CCCCN1C(=O)c1cc2nc(-c3ccccc3)cc(-c3ccccc3)n2n1` (centres undefined), the AC40 was 925 nM.

Consider `Cc1cc(C)c(S(=O)(=O)NC2CC3CCC2C3)c(C)c1` (centres undefined), for which the AC40 was 792 nM.

Take `CCOc1cc(C)c(S(=O)(=O)NC2CCCCC2)cc1C`: the AC40 is 1240 nM.

In the case of `COc1ccc(C(C)(C)C)cc1S(=O)(=O)NCC1CCCO1` (centres undefined), the AC40 is 456 nM.

With `COc1cccc(N2CCN(C(=O)c3oc4ccccc4c3NC(=O)CCc3cc(OC)no3)CC2)c1`, the AC40 is 2390 nM.

As to `Cc1cc(C)c(S(=O)(=O)NC(C)C)c(C)c1-n1cnnn1`, the AC40 is 1720 nM.

Turning to `Cc1cc(Cl)c(Cl)cc1S(=O)(=O)NCCCn1ccnc1`, the AC40 was 1890 nM.

In the case of `CN1C(=O)c2cccc3c(S(=O)(=O)NCCc4ccccc4)ccc1c23`, the AC40 was 300 nM.

Regarding `COc1cc(C)c(C(C)C)cc1S(=O)(=O)n1cnc(C)c1`, the AC40 was 4600 nM.

With `COC(=O)c1cc(S(=O)(=O)Nc2cc(OC)cc(OC)c2)cn1C`, the AC40 was 3190 nM.

For the compound `Cc1ccc(NS(=O)(=O)c2cc(C(=O)NCc3ccccn3)ccc2Cl)cc1C`, the AC40 was 2270 nM.

Turning to `CCOc1ccc(C)cc1S(=O)(=O)NC1CCCCC1`, the AC40 was 394 nM.

Consider `Cc1ccc(S(=O)(=O)Nc2ccc3c4c(cccc24)CC3)c(C)c1`, for which the AC40 was 3660 nM.

These data come from PubChem BioAssay AID687040 (Broad Institute, 2013).
